How the values were obtained:
Aspergillus niger 16404 = experiment: High resolution minimum inhibitory concentration (HRMIC) test, A. niger; format: cell-based; details: for control of fungal organisms (A. niger): result in words; for MIC (ppm) A. niger: ppm active ingredient, M9GY medium, 30° C., 24 hours, average of multiple determinations
Method: (§1) Biological Activity: certain compounds of the present invention were tested for activity against three microorganisms, Escherichia coli 8739 (Gram-negative bacterium) and Staphylococcus aureus 6538 (Gram-positive bacterium) and Aspergillus niger 16404.
(§2) The lowest concentration of test compound required to inhibit Staphylococcus aureus 6538, Escherichia coli 8739 and Aspergillus niger 16404 was determined by a high resolution minimum inhibitory concentration (HRMIC) test. Varying amounts of the test compounds were added to minimal salts glucose medium (see T. Maniatis, E. F. Fritsch and J. Sambrook, Molecular Cloning, p 68 (1982)) supplemented with 0.1% yeast extract (M9GY) in a 96-well microtiter plate. […] serial dilutions were performed on a Biomek™ 2000 Workstation to obtain a range of closely spaced concentrations of test compound as shown in Table 1 (based on dilutions of a 10,000 ppm active ingredient stock solution of the test compound). The plates were inoculated with cell suspension of inoculum and adjusted to provide about 10^6 CFU (colony forming units)/ml in each well. The microtiter plates were incubated at 30° C. for 24 hours and then checked (optical density at 650 nm using a microplate reader) for the presence or absence of microbial growth in each well. […] Data reported (ppm active ingredient) are the average of multiple determinations (see Table 2).

Escherichia coli 8739 = experiment: High resolution minimum inhibitory concentration (HRMIC) test, E. coli; format: cell-based; details: ppm active ingredient; M9GY medium, 30° C., 24 hours; average of multiple determinations
Method: as §1, §2

[1] = tested on: Staphylococcus aureus 6538; experiment: High resolution minimum inhibitory concentration (HRMIC) test, S. aureus; format: cell-based; details: for MIC (ppm) S. aur: ppm active ingredient, M9GY medium, 30° C., 24 hours, average of multiple determinations
Method: as §1, §2

| Structure (SMILES) | melting point [°C] | control of fungal organisms (A. niger) (Aspergillus niger 16404) | MIC (ppm) E. coli (Escherichia coli 8739) [ppm] | MIC (ppm) S. aur [1] [ppm] | better control versus Gram-positive (S. aur) bacteria than compound 6 ([1]; relative to compound 6, from Table 2 MIC) [fold] | MIC (ppm) A. niger (Aspergillus niger 16404) [ppm] |
| --- | --- | --- | --- | --- | --- | --- |
| Cn1sc(Sc2cccc[n+]2[O-])cc1=O [Compound 3, [2-methyl-3-isothiazolon-5-yl]-(1-oxypyridin-2-yl)sulfide] | 141 to 143 | effective control | – | – | – | – |
| CCCCCCCCn1sc(Sc2cccc[n+]2[O-])c(Cl)c1=O [Compound 5, [4-chloro-2-n-octyl-3-isothiazolon-5-yl]-(1-oxypyridin-2-yl)sulfide] | – | effective control | 30 | 0.9 | 5 | 10 |
| Cn1sc(Sc2nc3ccccc3s2)cc1=O [Compound 6, [2-methyl-3-isothiazolon-5-yl]-(benzothiazol-2′-yl)sulfide, reference compound] | – | – | >1000 | 5 | – | 15 |

Reference: patent US20030065192A1, “Antimicrobial compounds and methods of use” (priority 2001, published 2003)
